Assay results taken from the NIST ThermoML archive (doi:10.1016/j.jct.2014.07.018).
Numbers after ± are expanded uncertainties.

Experiment: molar heat capacity at constant pressure
Conditions: 101.33 kPa, Vacuum adiabatic calorimetry

With CCC[n+]1ccn(C)c1.[Br-] [1-methyl-3-propylimidazolium bromide] the “molar heat capacity at constant pressure” value (147.83 K, Crystal 2) was 133.2 ± 0.6 J/K/mol, the “molar heat capacity at constant pressure” value (148.11 K, Glass) was 140.8 ± 0.6 J/K/mol and the “molar heat capacity at constant pressure” value (149.71 K, Crystal 2) was 134.1 ± 0.6 J/K/mol. For the same molecule, the “molar heat capacity at constant pressure” value (149.83 K, Crystal 2) was 134.2 ± 0.6 J/K/mol, the “molar heat capacity at constant pressure” value (150 K, Crystal 2) was 134.3 ± 0.6 J/K/mol and the “molar heat capacity at constant pressure” value (150 K, Glass) was 141.9 ± 0.6 J/K/mol. For the same molecule, the “molar heat capacity at constant pressure” value (150.11 K, Glass) was 141.9 ± 0.6 J/K/mol, the “molar heat capacity at constant pressure” value (151.82 K, Crystal 2) was 135.2 ± 0.6 J/K/mol and the “molar heat capacity at constant pressure” value (151.83 K, Crystal 2) was 135.2 ± 0.6 J/K/mol. The “molar heat capacity at constant pressure” value (152.11 K, Glass) was 143.1 ± 0.6 J/K/mol, the “molar heat capacity at constant pressure” value (153.84 K, Crystal 2) was 136.2 ± 0.6 J/K/mol and the “molar heat capacity at constant pressure” value (153.93 K, Crystal 2) was 136.3 ± 0.6 J/K/mol. For the same molecule, the “molar heat capacity at constant pressure” value (154.12 K, Glass) was 144.2 ± 0.6 J/K/mol, the “molar heat capacity at constant pressure” value (155.85 K, Crystal 2) was 137.2 ± 0.6 J/K/mol and the “molar heat capacity at constant pressure” value (156.04 K, Crystal 2) was 137.3 ± 0.6 J/K/mol. The “molar heat capacity at constant pressure” value (156.13 K, Glass) was 145.4 ± 0.6 J/K/mol, the “molar heat capacity at constant pressure” value (157.86 K, Crystal 2) was 138.3 ± 0.6 J/K/mol and the “molar heat capacity at constant pressure” value (158.13 K, Glass) was 146.5 ± 0.6 J/K/mol. The “molar heat capacity at constant pressure” value (158.16 K, Crystal 2) was 138.4 ± 0.6 J/K/mol, the “molar heat capacity at constant pressure” value (159.86 K, Crystal 2) was 139.3 ± 0.6 J/K/mol and the “molar heat capacity at constant pressure” value (160 K, Crystal 2) was 139.3 ± 0.6 J/K/mol. For the same molecule, the “molar heat capacity at constant pressure” value (160 K, Glass) was 147.5 ± 0.7 J/K/mol, the “molar heat capacity at constant pressure” value (160.14 K, Glass) was 147.6 ± 0.6 J/K/mol and the “molar heat capacity at constant pressure” value (160.27 K, Crystal 2) was 139.5 ± 0.6 J/K/mol. For the same molecule, the “molar heat capacity at constant pressure” value (161.87 K, Crystal 2) was 140.2 ± 0.6 J/K/mol, the “molar heat capacity at constant pressure” value (162.15 K, Glass) was 148.7 ± 0.6 J/K/mol and the “molar heat capacity at constant pressure” value (162.38 K, Crystal 2) was 140.6 ± 0.6 J/K/mol. For the same molecule, the “molar heat capacity at constant pressure” value (163.88 K, Crystal 2) was 141.3 ± 0.6 J/K/mol, the “molar heat capacity at constant pressure” value (164.17 K, Glass) was 149.8 ± 0.7 J/K/mol and the “molar heat capacity at constant pressure” value (164.5 K, Crystal 2) was 141.6 ± 0.6 J/K/mol. The “molar heat capacity at constant pressure” value (165.89 K, Crystal 2) was 142.3 ± 0.6 J/K/mol, the “molar heat capacity at constant pressure” value (166.18 K, Glass) was 151 ± 0.7 J/K/mol and the “molar heat capacity at constant pressure” value (166.61 K, Crystal 2) was 142.6 ± 0.6 J/K/mol. For the same molecule, the “molar heat capacity at constant pressure” value (167.9 K, Crystal 2) was 143.3 ± 0.6 J/K/mol, the “molar heat capacity at constant pressure” value (168.19 K, Glass) was 152.2 ± 0.7 J/K/mol and the “molar heat capacity at constant pressure” value (168.73 K, Crystal 2) was 143.7 ± 0.6 J/K/mol. For the same molecule, the “molar heat capacity at constant pressure” value (169.91 K, Crystal 2) was 144.4 ± 0.6 J/K/mol, the “molar heat capacity at constant pressure” value (170 K, Crystal 2) was 144.4 ± 0.6 J/K/mol and the “molar heat capacity at constant pressure” value (170 K, Glass) was 153.2 ± 0.7 J/K/mol. The “molar heat capacity at constant pressure” value (170.21 K, Glass) was 153.3 ± 0.7 J/K/mol, the “molar heat capacity at constant pressure” value (170.84 K, Crystal 2) was 144.8 ± 0.6 J/K/mol and the “molar heat capacity at constant pressure” value (171.92 K, Crystal 2) was 145.4 ± 0.6 J/K/mol. For the same molecule, the “molar heat capacity at constant pressure” value (172.22 K, Glass) was 154.5 ± 0.7 J/K/mol, the “molar heat capacity at constant pressure” value (172.95 K, Crystal 2) was 146.1 ± 0.6 J/K/mol and the “molar heat capacity at constant pressure” value (173.94 K, Crystal 2) was 146.6 ± 0.6 J/K/mol. The “molar heat capacity at constant pressure” value (174.24 K, Glass) was 155.6 ± 0.7 J/K/mol, the “molar heat capacity at constant pressure” value (175.06 K, Crystal 2) was 147.4 ± 0.6 J/K/mol and the “molar heat capacity at constant pressure” value (175.95 K, Crystal 2) was 147.9 ± 0.6 J/K/mol. The “molar heat capacity at constant pressure” value (176.26 K, Glass) was 156.8 ± 0.7 J/K/mol, the “molar heat capacity at constant pressure” value (177.17 K, Crystal 2) was 148.7 ± 0.6 J/K/mol and the “molar heat capacity at constant pressure” value (177.96 K, Crystal 2) was 149.1 ± 0.6 J/K/mol. The “molar heat capacity at constant pressure” value (178.28 K, Glass) was 158 ± 0.7 J/K/mol, the “molar heat capacity at constant pressure” value (179.28 K, Crystal 2) was 149.8 ± 0.7 J/K/mol and the “molar heat capacity at constant pressure” value (179.98 K, Crystal 2) was 150.2 ± 0.7 J/K/mol. For the same molecule, the “molar heat capacity at constant pressure” value (180 K, Crystal 2) was 150.2 ± 0.7 J/K/mol, the “molar heat capacity at constant pressure” value (180 K, Glass) was 159.1 ± 0.7 J/K/mol and the “molar heat capacity at constant pressure” value (180.3 K, Glass) was 159.2 ± 0.7 J/K/mol. The “molar heat capacity at constant pressure” value (181.39 K, Crystal 2) was 150.9 ± 0.7 J/K/mol, the “molar heat capacity at constant pressure” value (182 K, Crystal 2) was 151.2 ± 0.7 J/K/mol and the “molar heat capacity at constant pressure” value (182.32 K, Glass) was 160.4 ± 0.7 J/K/mol. The “molar heat capacity at constant pressure” value (183.49 K, Crystal 2) was 152 ± 0.7 J/K/mol, the “molar heat capacity at constant pressure” value (184.02 K, Crystal 2) was 152.2 ± 0.7 J/K/mol and the “molar heat capacity at constant pressure” value (184.34 K, Glass) was 161.7 ± 0.7 J/K/mol. The “molar heat capacity at constant pressure” value (185.6 K, Crystal 2) was 153 ± 0.7 J/K/mol, the “molar heat capacity at constant pressure” value (186.04 K, Crystal 2) was 153.2 ± 0.7 J/K/mol and the “molar heat capacity at constant pressure” value (186.37 K, Glass) was 162.9 ± 0.7 J/K/mol. The “molar heat capacity at constant pressure” value (187.7 K, Crystal 2) was 154.1 ± 0.7 J/K/mol, the “molar heat capacity at constant pressure” value (188.06 K, Crystal 2) was 154.3 ± 0.7 J/K/mol and the “molar heat capacity at constant pressure” value (188.39 K, Glass) was 164.2 ± 0.7 J/K/mol. For the same molecule, the “molar heat capacity at constant pressure” value (189.8 K, Crystal 2) was 155.2 ± 0.7 J/K/mol, the “molar heat capacity at constant pressure” value (190 K, Crystal 2) was 155.3 ± 0.7 J/K/mol and the “molar heat capacity at constant pressure” value (190 K, Glass) was 164.3 ± 0.7 J/K/mol. For the same molecule, the “molar heat capacity at constant pressure” value (190.08 K, Crystal 2) was 155.3 ± 0.7 J/K/mol, the “molar heat capacity at constant pressure” value (190.42 K, Glass) was 165.5 ± 0.7 J/K/mol and the “molar heat capacity at constant pressure” value (191.9 K, Crystal 2) was 156.2 ± 0.7 J/K/mol. The “molar heat capacity at constant pressure” value (192.1 K, Crystal 2) was 156.3 ± 0.7 J/K/mol, the “molar heat capacity at constant pressure” value (192.45 K, Glass) was 166.9 ± 0.7 J/K/mol and the “molar heat capacity at constant pressure” value (194 K, Crystal 2) was 157.3 ± 0.7 J/K/mol. For the same molecule, the “molar heat capacity at constant pressure” value (194.12 K, Crystal 2) was 157.4 ± 0.7 J/K/mol, the “molar heat capacity at constant pressure” value (194.48 K, Glass) was 168.3 ± 0.7 J/K/mol and the “molar heat capacity at constant pressure” value (196.1 K, Crystal 2) was 158.4 ± 0.7 J/K/mol. For the same molecule, the “molar heat capacity at constant pressure” value (196.15 K, Crystal 2) was 158.4 ± 0.7 J/K/mol, the “molar heat capacity at constant pressure” value (196.52 K, Glass) was 169.7 ± 0.7 J/K/mol and the “molar heat capacity at constant pressure” value (198.17 K, Crystal 2) was 159.4 ± 0.7 J/K/mol. The “molar heat capacity at constant pressure” value (198.2 K, Crystal 2) was 159.4 ± 0.7 J/K/mol, the “molar heat capacity at constant pressure” value (198.56 K, Glass) was 171.3 ± 0.7 J/K/mol and the “molar heat capacity at constant pressure” value (200 K, Crystal 2) was 160.4 ± 0.7 J/K/mol. For the same molecule, the “molar heat capacity at constant pressure” value (200 K, Glass) was 171.3 ± 0.7 J/K/mol, the “molar heat capacity at constant pressure” value (200.2 K, Crystal 2) was 160.5 ± 0.7 J/K/mol and the “molar heat capacity at constant pressure” value (200.29 K, Crystal 2) was 160.5 ± 0.7 J/K/mol. For the same molecule, the “molar heat capacity at constant pressure” value (200.61 K, Glass) was 173 ± 0.7 J/K/mol, the “molar heat capacity at constant pressure” value (202.22 K, Crystal 2) was 161.6 ± 0.7 J/K/mol and the “molar heat capacity at constant pressure” value (202.39 K, Crystal 2) was 161.7 ± 0.7 J/K/mol. For the same molecule, the “molar heat capacity at constant pressure” value (202.66 K, Glass) was 174.7 ± 0.7 J/K/mol, the “molar heat capacity at constant pressure” value (204.25 K, Crystal 2) was 162.6 ± 0.7 J/K/mol and the “molar heat capacity at constant pressure” value (204.48 K, Crystal 2) was 162.8 ± 0.7 J/K/mol. The “molar heat capacity at constant pressure” value (204.71 K, Glass) was 177.1 ± 0.8 J/K/mol, the “molar heat capacity at constant pressure” value (206.28 K, Crystal 2) was 163.8 ± 0.7 J/K/mol and the “molar heat capacity at constant pressure” value (206.57 K, Crystal 2) was 163.9 ± 0.7 J/K/mol. For the same molecule, the “molar heat capacity at constant pressure” value (206.79 K, Glass) was 179.5 ± 0.8 J/K/mol, the “molar heat capacity at constant pressure” value (208.31 K, Crystal 2) was 164.9 ± 0.7 J/K/mol and the “molar heat capacity at constant pressure” value (208.66 K, Crystal 2) was 165.1 ± 0.7 J/K/mol. The “molar heat capacity at constant pressure” value (208.84 K, Glass) was 183.4 ± 0.8 J/K/mol, the “molar heat capacity at constant pressure” value (210 K, Crystal 2) was 165.9 ± 0.7 J/K/mol and the “molar heat capacity at constant pressure” value (210 K, Glass) was 183.6 ± 0.8 J/K/mol. For the same molecule, the “molar heat capacity at constant pressure” value (210.35 K, Crystal 2) was 166 ± 0.7 J/K/mol, the “molar heat capacity at constant pressure” value (210.75 K, Crystal 2) was 166.3 ± 0.7 J/K/mol and the “molar heat capacity at constant pressure” value (210.87 K, Glass) was 189.3 ± 0.8 J/K/mol. The “molar heat capacity at constant pressure” value (212.38 K, Crystal 2) was 167.3 ± 0.7 J/K/mol, the “molar heat capacity at constant pressure” value (212.84 K, Crystal 2) was 167.5 ± 0.7 J/K/mol and the “molar heat capacity at constant pressure” value (212.85 K, Glass) was 201.5 ± 0.9 J/K/mol. The “molar heat capacity at constant pressure” value (214.41 K, Crystal 2) was 168.5 ± 0.7 J/K/mol, the “molar heat capacity at constant pressure” value (214.71 K, Liquid) was 229.7 ± 1 J/K/mol and the “molar heat capacity at constant pressure” value (214.92 K, Crystal 2) was 168.8 ± 0.7 J/K/mol. The “molar heat capacity at constant pressure” value (216.44 K, Crystal 2) was 169.7 ± 0.7 J/K/mol, the “molar heat capacity at constant pressure” value (216.52 K, Liquid) was 256.1 ± 1.1 J/K/mol and the “molar heat capacity at constant pressure” value (217 K, Crystal 2) was 170.1 ± 0.7 J/K/mol. For the same molecule, the “molar heat capacity at constant pressure” value (218.48 K, Crystal 2) was 170.9 ± 0.7 J/K/mol, the “molar heat capacity at constant pressure” value (218.48 K, Liquid) was 258.4 ± 1.1 J/K/mol and the “molar heat capacity at constant pressure” value (219.08 K, Crystal 2) was 171.3 ± 0.7 J/K/mol. The “molar heat capacity at constant pressure” value (220 K, Crystal 2) was 171.8 ± 0.7 J/K/mol, the “molar heat capacity at constant pressure” value (220 K, Liquid) was 258.4 ± 1.1 J/K/mol and the “molar heat capacity at constant pressure” value (220.51 K, Crystal 2) was 172.1 ± 0.7 J/K/mol. The “molar heat capacity at constant pressure” value (220.52 K, Liquid) was 259.6 ± 1.1 J/K/mol, the “molar heat capacity at constant pressure” value (221.15 K, Crystal 2) was 172.5 ± 0.7 J/K/mol and the “molar heat capacity at constant pressure” value (222.55 K, Crystal 2) was 173.3 ± 0.7 J/K/mol. For the same molecule, the “molar heat capacity at constant pressure” value (223.22 K, Crystal 2) was 173.7 ± 0.7 J/K/mol, the “molar heat capacity at constant pressure” value (224.59 K, Crystal 2) was 174.5 ± 0.7 J/K/mol and the “molar heat capacity at constant pressure” value (225.29 K, Crystal 2) was 175 ± 0.8 J/K/mol. For the same molecule, the “molar heat capacity at constant pressure” value (226.63 K, Crystal 2) was 175.8 ± 0.8 J/K/mol and the “molar heat capacity at constant pressure” value (227.36 K, Crystal 2) was 176.2 ± 0.8 J/K/mol.
